Experimental data taken from PubChem BioAssay AID328 (DTP/NCI, 2004).
Values joined by “and” are separate entries in the source; they are usually repeats but may differ in a detail not shown here. Equal entries are not always repeated. Inconclusive results and toxic doses are left out.

System: BDF1 mice, P388 leukemia ip, median survival T/C
Experiment: NCI In Vivo Anticancer Drug Screen. Data for tumor model P388 Leukemia (intraperitoneal) in B6D2F1 (BDF1) mice
Conditions: endpoint: median survival time, higher = longer survival
Method in brief: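 Compound-treated tumour-bearing mice were compared with vehicle-treated controls. Survival was recorded, and the value is the treated-group measurement divided by the control-group measurement (T/C).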

[1] = dose: 100.0 mg/kg/injection, schedule: Q04DX003 (ip), vehicle: water
[2] = dose: 200.0 mg/kg/injection, schedule: Q04DX003 (ip), vehicle: water
[3] = dose: 400.0 mg/kg/injection, schedule: Q04DX003 (ip), vehicle: water
[4] = dose: 100.0 mg/kg/injection, schedule: Q04DX003 (ip), vehicle: saline
[5] = dose: 200.0 mg/kg/injection, schedule: Q04DX003 (ip), vehicle: saline
[6] = dose: 400.0 mg/kg/injection, schedule: Q04DX003 (ip), vehicle: saline
[7] = dose: 50.0 mg/kg/injection, schedule: Q04DX003 (ip), vehicle: saline with Tween-80
[8] = dose: 100.0 mg/kg/injection, schedule: Q04DX003 (ip), vehicle: saline with Tween-80
[9] = dose: 200.0 mg/kg/injection, schedule: Q04DX003 (ip), vehicle: saline with Tween-80
[10] = dose: 6.25 mg/kg/injection, schedule: Q01DX009 (ip), vehicle: saline
[11] = dose: 12.5 mg/kg/injection, schedule: Q01DX009 (ip), vehicle: saline
[12] = dose: 25.0 mg/kg/injection, schedule: Q01DX009 (ip), vehicle: saline
[13] = dose: 50.0 mg/kg/injection, schedule: Q01DX009 (ip), vehicle: saline with Tween-80
[14] = dose: 100.0 mg/kg/injection, schedule: Q01DX009 (ip), vehicle: saline with Tween-80
[15] = dose: 100.0 mg/kg/injection, schedule: Q04DX003 (ip), vehicle: saline sonified
[16] = dose: 25.0 mg/kg/injection, schedule: Q01DX009 (ip), vehicle: saline with Tween-80
[17] = dose: 25.0 mg/kg/injection, schedule: Q04DX003 (ip), vehicle: saline sonified
[18] = dose: 6.25 mg/kg/injection, schedule: Q01DX009 (ip), vehicle: water
[19] = dose: 12.5 mg/kg/injection, schedule: Q01DX009 (ip), vehicle: water
[20] = dose: 50.0 mg/kg/injection, schedule: Q01DX009 (ip), vehicle: water
[21] = dose: 100.0 mg/kg/injection, schedule: Q01DX009 (ip), vehicle: water

In the case of `COC(=O)CSc1ncc2cnccn12`, the T/C [1] is reported as 109 % of control, the T/C [2] is reported as 100 % of control and the T/C [3] is reported as 109 % of control.

For `CCOC(=O)CCCC1(C)C(C#N)C(=O)NC(=O)C1C#N` (stereo not drawn), the T/C [4] was 104 % of control, the T/C [5] was 100 % of control and the T/C [6] was 118 % of control.

With `NC(=O)c1ncc[nH]c1=O` the T/C [7] was 100 % of control, the T/C [8] was 100 % of control and the T/C [9] was 105 % of control.

`O=c1cc(CO)occ1O.O=c1cc(CO)occ1O.[O]=[V]` was tested, and the T/C [10] was 105 % of control, the T/C [11] was 94 % of control and the T/C [12] was 100 % of control.

In the case of `CCCCN(CCCC)CC(O)c1c2cccc(Cl)c2cc2c(Cl)cccc12` (stereo not drawn), the T/C [13] is reported as 107 % of control, the T/C [14] is reported as 102 % of control and the T/C (dose: 200.0 mg/kg/injection, schedule: Q01DX009 (ip), vehicle: saline with Tween-80) is reported as 123 % of control.

In the case of `O=C(Cn1cc(F)c(=O)[nH]c1=O)N1CCC2(CC1)SSC1(CCN(C(=O)Cn3cc(F)c(=O)[nH]c3=O)CC1)S2`, the T/C (dose: 100.0 mg/kg/injection, schedule: Q01DX009 (ip), vehicle: saline) is reported as 90 % of control, the T/C [4] is reported as 104 % of control and the T/C (dose: 200.0 mg/kg/injection, schedule: Q01DX009 (ip), vehicle: saline) is reported as 95 % of control. For the same compound, the T/C [5] was 95 % of control and the T/C [6] was 104 % of control.

With `O=C(NO)c1ccc(O)cc1` the T/C [15] was 118 % of control, the T/C (dose: 132.0 mg/kg/injection, schedule: Q04DX003 (ip), vehicle: saline sonified) was 100 % of control and the T/C (dose: 200.0 mg/kg/injection, schedule: Q04DX003 (ip), vehicle: saline sonified) was 100 % of control.

`CC(=O)Nc1ccc(S(=O)(=O)Oc2ccc([N+](=O)[O-])cc2)cc1` was tested, and the T/C (dose: 1.56 mg/kg/injection, schedule: Q01DX009 (ip), vehicle: saline) was 96 % of control, the T/C (dose: 3.12 mg/kg/injection, schedule: Q01DX009 (ip), vehicle: saline) was 112 % of control and the T/C [10] was 107 % of control. The T/C [11] was 93 % of control and the T/C [12] was 92 % of control and 103 % of control.

`c1ccc(CCCSc2ccccc2)cc1` was tested, and the T/C [8] was 118 % of control, the T/C [9] was 113 % of control and the T/C (dose: 400.0 mg/kg/injection, schedule: Q04DX003 (ip), vehicle: saline with Tween-80) was 109 % of control.

For `Cc1ccc(NC(=O)N(CCCl)N=O)cc1NC(=O)N(CCCl)N=O`, the T/C (dose: 1.25 mg/kg/injection, schedule: Q04DX003 (ip), vehicle: other) was 179 % of control, the T/C (dose: 2.5 mg/kg/injection, schedule: Q04DX003 (ip), vehicle: other) was 175 % of control and the T/C (dose: 3.12 mg/kg/injection, schedule: Q01DX009 (ip), vehicle: other) was 204 % of control. The T/C (dose: 3.13 mg/kg/injection, schedule: Q01DX009 (ip), vehicle: saline with Tween-80) was 185 % of control, the T/C (dose: 5.0 mg/kg/injection, schedule: Q04DX003 (ip), vehicle: other) was 200 % of control and the T/C (dose: 6.25 mg/kg/injection, schedule: Q01DX009 (ip), vehicle: other) was 207 % of control. For the same compound, the T/C (dose: 6.25 mg/kg/injection, schedule: Q01DX009 (ip), vehicle: saline with Tween-80) was 221 % of control, the T/C (dose: 6.25 mg/kg/injection, schedule: Q04DX003 (ip), vehicle: other) was 166 % of control and the T/C (dose: 12.5 mg/kg/injection, schedule: Q01DX009 (ip), vehicle: saline with Tween-80) was 221 % of control. For the same compound, the T/C [16] was 113 % of control and the T/C (dose: 25.0 mg/kg/injection, schedule: Q04DX003 (ip), vehicle: other) was 177 % of control.

In the case of `O=CNC(Cc1cccc(N(CCCl)CCCl)c1)C(=O)O` (stereo not drawn), the T/C (dose: 11.0 mg/kg/injection, schedule: Q04DX003 (ip), vehicle: saline sonified) is reported as 94 % of control, the T/C (dose: 16.5 mg/kg/injection, schedule: Q04DX003 (ip), vehicle: saline sonified) is reported as 100 % of control and the T/C [17] is reported as 122 % of control. The T/C [7] was 177 % of control and the T/C [8] was 272 % of control.

For `Oc1cccnc1CN1CCCCC1`, the T/C [10] was 103 % of control, the T/C [11] was 111 % of control and the T/C [12] was 107 % of control. The T/C (dose: 50.0 mg/kg/injection, schedule: Q01DX009 (ip), vehicle: saline) was 88 % of control.

With `Cc1c[nH]c2nccnc12` the T/C (dose: 1.56 mg/kg/injection, schedule: Q01DX009 (ip), vehicle: water) was 103 % of control, the T/C (dose: 3.12 mg/kg/injection, schedule: Q01DX009 (ip), vehicle: water) was 94 % of control and 105 % of control and the T/C [18] was 93 % of control and 94 % of control and 101 % of control. For the same compound, the T/C [19] was 91 % of control and 106 % of control, the T/C [20] was 90 % of control and 99 % of control and the T/C (dose: 50.0 mg/kg/injection, schedule: Q04DX003 (ip), vehicle: water) was 94 % of control. The T/C [21] was 89 % of control and 106 % of control, the T/C [1] was 94 % of control and the T/C (dose: 200.0 mg/kg/injection, schedule: Q01DX009 (ip), vehicle: water) was 108 % of control. The T/C [2] was 103 % of control, the T/C (dose: 400.0 mg/kg/injection, schedule: Q01DX009 (ip), vehicle: water) was 99 % of control and the T/C [3] was 92 % of control.

With `C[n+]1ccc(Nc2ccc(NC(=O)c3ccc([N+](=O)[O-])cc3)cc2)cc1` the T/C [18] was 108 % of control, the T/C [19] was 96 % of control and the T/C (dose: 12.5 mg/kg/injection, schedule: Q04DX003 (ip), vehicle: water) was 100 % of control. The T/C (dose: 25.0 mg/kg/injection, schedule: Q01DX009 (ip), vehicle: water) was 90 % of control, the T/C (dose: 25.0 mg/kg/injection, schedule: Q04DX003 (ip), vehicle: water) was 98 % of control and 100 % of control (2×) and the T/C [20] was 97 % of control. For the same compound, the T/C [21] was 107 % of control and the T/C (dose: 150.0 mg/kg/injection, schedule: Q04DX003 (ip), vehicle: water) was 91 % of control.

With `CN(Nc1c([N+](=O)[O-])cc([N+](=O)[O-])cc1[N+](=O)[O-])c1ccc2ccccc2c1` the T/C (dose: 100.0 mg/kg/injection, schedule: Q01DX009 (ip), vehicle: Klucel (hydroxypropylcellulose) (HPC)) was 120 % of control, the T/C (dose: 200.0 mg/kg/injection, schedule: Q01DX009 (ip), vehicle: Klucel (hydroxypropylcellulose) (HPC)) was 105 % of control and the T/C (dose: 400.0 mg/kg/injection, schedule: Q01DX009 (ip), vehicle: Klucel (hydroxypropylcellulose) (HPC)) was 110 % of control.

In the case of `O=C(O)c1ccccc1NC(=O)C(F)(F)F`, the T/C [17] is reported as 91 % of control, the T/C (dose: 50.0 mg/kg/injection, schedule: Q04DX003 (ip), vehicle: saline sonified) is reported as 91 % of control and the T/C [15] is reported as 91 % of control.

In the case of `CC(=O)N1c2ccccc2Sc2cc(C(O)(C(F)(F)F)C(F)(F)F)ccc21`, the T/C [16] is reported as 86 % of control, the T/C [13] is reported as 90 % of control and the T/C [14] is reported as 90 % of control.

For `[NH-]C(CCC(N)=O)C(=O)O.[NH-]C(CCCN=C(N)N)C(=O)O.[Zn+2]` (stereo not drawn), the T/C (dose: 50.0 mg/kg/injection, schedule: Q01DX005 (ip), vehicle: saline) was 104 % of control and the T/C (dose: 100.0 mg/kg/injection, schedule: Q01DX005 (ip), vehicle: saline) was 120 % of control.

`CSc1nc(C)c(Br)c(Sc2nc(N)nc3nc[nH]c23)n1` was tested, and the T/C (dose: 66.0 mg/kg/injection, schedule: Q04DX003 (ip), vehicle: saline with Tween-80) was 154 % of control, the T/C [8] was 150 % of control and the T/C (dose: 150.0 mg/kg/injection, schedule: Q04DX003 (ip), vehicle: saline with Tween-80) was 150 % of control.

In the case of `FC(F)(F)c1nc(Cl)nc(Cl)c1Cl`, the T/C (dose: 3.12 mg/kg/injection, schedule: Q01DX005 (ip), vehicle: saline) is reported as 105 % of control, the T/C (dose: 6.25 mg/kg/injection, schedule: Q01DX005 (ip), vehicle: saline) is reported as 100 % of control and the T/C (dose: 12.5 mg/kg/injection, schedule: Q01DX005 (ip), vehicle: saline) is reported as 110 % of control.
